# PubChem BioAssay (NCI)
#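 The compound was tested at five concentrations on cells cultured in 96-well plates, with a 48-hour exposure period. GI50 is the concentration that inhibits growth by half. Definition used: TGI = concentration required for complete inhibition of growth.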
# Tests used:
# Assay in all cases: DTP human tumour cell line panel, 48 h
# HT29 colon = system: HT29 colon
# SK-MEL-28 melanoma = system: SK-MEL-28 melanoma
# SK-MEL-5 melanoma = system: SK-MEL-5 melanoma
# U251 CNS = system: U251 CNS
# UACC-62 melanoma = system: UACC-62 melanoma
# DU-145 prostate = system: DU-145 prostate
# OVCAR-4 ovarian = system: OVCAR-4 ovarian
# T-47D breast = system: T-47D breast
# CAKI-1 renal = system: CAKI-1 renal
# RPMI-8226 leukemia = system: RPMI-8226 leukemia
Structure (SMILES),TGI (HT29 colon),TGI (SK-MEL-28 melanoma),TGI (SK-MEL-5 melanoma),TGI (U251 CNS),TGI (UACC-62 melanoma),GI50 (DU-145 prostate),TGI (DU-145 prostate),GI50 (HT29 colon),GI50 (OVCAR-4 ovarian),TGI (OVCAR-4 ovarian),GI50 (SK-MEL-28 melanoma),GI50 (SK-MEL-5 melanoma),GI50 (T-47D breast),TGI (T-47D breast),GI50 (U251 CNS),GI50 (UACC-62 melanoma),TGI (CAKI-1 renal),TGI (RPMI-8226 leukemia),GI50 (CAKI-1 renal),GI50 (RPMI-8226 leukemia)
CN1C(=O)CC2(C)c3cc(O)cc(Br)c3N(C)C12 (stereo not given),> 100 µM,> 100 µM,> 100 µM,> 100 µM,> 100 µM,–,–,–,–,–,–,–,–,–,–,–,–,–,–,–
CN1CC=C(c2cc(NC(=O)Nc3ccc(Oc4ccnc(NC(=O)C5CC5)c4)c(F)c3)cc(C(F)(F)F)c2)CC1,0.678 µM,3.07 µM,1.59 µM,0.824 µM,2.25 µM,0.212 µM,1.62 µM,0.166 µM,0.26 µM,2.35 µM,1.23 µM,0.853 µM,1.37 µM,3.99 µM,0.208 µM,1.1 µM,–,–,–,–
CC1(C)NC(=O)N(CCCCCCN2C(=O)NC(C)(C)C2=O)C1=O,> 100 µM,> 100 µM,–,> 100 µM,> 100 µM,–,–,–,–,> 100 µM,–,–,–,–,–,–,> 100 µM,> 100 µM,–,–
N#CC(C#N)=NNc1ccc2cn[nH]c2c1,> 100 µM,> 100 µM,> 100 µM,> 100 µM,> 100 µM,–,82.9 µM,–,–,> 100 µM,–,–,–,> 100 µM,–,–,96.4 µM,65.4 µM,–,–
O=C1Nc2ccccc2/C1=C\c1c(-c2ccccc2)nc2sccn12,36.9 µM,44.9 µM,7.89 µM,7.96 µM,9.72 µM,7.31 µM,31.1 µM,3.14 µM,12.6 µM,62.8 µM,8.98 µM,2.2 µM,2.65 µM,> 33 µM,2.25 µM,0.798 µM,4.74 µM,3.74 µM,1.29 µM,0.909 µM
COc1cccc(C=O)c1C(=O)c1cc(O)ccc1O,> 76.3 µM,> 61.4 µM,> 100 µM,> 100 µM,> 100 µM,–,–,–,–,35.7 µM,–,–,–,–,–,–,> 57.4 µM,–,–,–
CCc1ccccc1NC(=O)C(=O)C(C#N)c1ccccc1Cl (stereo not given),> 100 µM,> 100 µM,> 100 µM,> 100 µM,> 100 µM,–,–,–,–,> 100 µM,–,–,–,–,–,–,–,> 100 µM,–,–
O=C(CCC(=O)Nc1ccc(Cl)c(Cl)c1)CC(=O)c1ccc2ccccc2c1,> 100 µM,> 100 µM,> 100 µM,> 100 µM,> 100 µM,–,–,–,–,> 100 µM,–,–,–,–,–,–,> 100 µM,> 100 µM,–,–
[O-]/N=[N+](/[O-])C1CCCCC1=[N+]1CCOCC1 (stereo not given),> 100 µM,> 100 µM,–,> 100 µM,> 100 µM,–,–,–,–,> 100 µM,–,–,–,–,–,–,> 100 µM,> 100 µM,–,–
COC(=O)Oc1nn(C(=O)OC)c(=O)c2ccccc12,–,> 100 µM,> 100 µM,> 100 µM,> 100 µM,–,> 100 µM,–,–,–,–,–,–,> 100 µM,–,–,> 100 µM,> 100 µM,–,–
COc1cc2c(cc1OC)C(C#N)N(C(=O)c1ccccc1)C=C2OC(=O)c1ccccc1 (stereo not given),> 100 µM,58.1 µM,44.9 µM,74.7 µM,45 µM,–,–,–,–,–,–,–,–,–,–,–,–,> 100 µM,–,–
COc1ccc(-c2coc3cc(O)ccc3c2=O)cc1,> 100 µM,> 100 µM,> 100 µM,> 100 µM,> 100 µM,–,> 100 µM,–,–,–,–,–,–,> 100 µM,–,–,> 100 µM,–,–,–
Nc1nc(N)c(CCCCc2ccccc2)c(C=O)n1,26.5 µM,32.3 µM,34.9 µM,49.6 µM,30.8 µM,–,–,–,–,70.6 µM,–,–,–,–,–,–,> 100 µM,41.2 µM,–,–
COC(=O)C12CCC(C)(C)CC1C1=CCC3C4(C)CC(O)C(O)C(C)(C(=O)OC)C4CCC3(C)C1(CO)CC2 (stereo not given),30.1 µM,–,41.3 µM,39.8 µM,28.9 µM,–,29.1 µM,–,–,27.8 µM,–,–,–,24 µM,–,–,27.8 µM,40.9 µM,–,–
O=C(NC(=Nc1ccccc1)SCSC(=Nc1ccccc1)NC(=O)c1ccco1)c1ccco1,> 100 µM,> 100 µM,> 100 µM,> 100 µM,> 100 µM,–,–,–,–,> 100 µM,–,–,–,–,–,–,> 100 µM,> 100 µM,–,–
NC1N=Nc2ccccc21 (stereo not given),> 100 µM,> 100 µM,–,> 100 µM,–,–,–,–,–,> 100 µM,–,–,–,–,–,–,> 100 µM,> 100 µM,–,–
O=[N+]([O-])c1cc(-c2nc(=S)[nH][nH]2)ccc1O,> 100 µM,> 100 µM,> 100 µM,> 100 µM,> 100 µM,–,–,–,–,> 100 µM,–,–,–,–,–,–,> 100 µM,–,–,–
N#CCCN(CCC#N)c1ccc(/C=C(/NC(=O)c2cc([N+](=O)[O-])ccc2Cl)C(=O)NN)cc1,> 100 µM,> 100 µM,> 100 µM,> 100 µM,> 100 µM,–,–,–,–,> 100 µM,–,–,–,–,–,–,> 100 µM,> 100 µM,–,–
COc1cc2c3c(n(CCCN(CCCN(CCCn4c5c(c6ccccc6c4=O)C(=O)c4ccccc4-5)C(=O)OC(C)(C)C)C(=O)OC(C)(C)C)c(=O)c2cc1OC)-c1cc2c(cc1C3=O)OCO2,> 100 µM,> 100 µM,> 100 µM,> 100 µM,> 100 µM,–,–,> 100 µM,> 100 µM,> 100 µM,> 100 µM,> 100 µM,> 100 µM,> 100 µM,> 100 µM,> 100 µM,> 100 µM,> 100 µM,9.85 µM,> 100 µM
CC1CCC2C(C)C(=O)OC3OC4(C)CCC1C32OO4 (stereo not given),> 100 µM,> 100 µM,> 100 µM,> 100 µM,> 100 µM,–,–,> 100 µM,–,> 100 µM,> 100 µM,–,–,–,> 100 µM,> 100 µM,> 100 µM,> 100 µM,–,–
Cc1cc(=O)[nH]c(CNC(=O)c2ccc3ccccc3c2)n1,> 100 µM,> 100 µM,> 100 µM,> 100 µM,> 100 µM,–,–,–,–,> 100 µM,–,–,–,–,–,–,> 100 µM,–,–,–
O=C(Cc1ccccc1[N+](=O)[O-])C(CO)c1ccccc1[N+](=O)[O-] (stereo not given),> 100 µM,> 100 µM,> 100 µM,> 100 µM,> 100 µM,–,–,–,–,> 100 µM,–,–,–,–,–,–,> 100 µM,> 100 µM,–,–
